# Experimental data from publication PMC8786932, “Bicyclic azetidines target acute and chronic stages of Toxoplasma gondii by inhibiting parasite phenylalanyl t-RNA synthetase” (Nature Communications, 2022).
# Where “and” joins values, the source holds several entries; their conditions need not be identical. Equal values may be shown once. Read-outs that look alike come from different tables or passages of the source.
# What was measured:
# [1] = tested on: T. gondii RHΔhxgprtΔku80 (RHΔΔ); assay: Tachyzoite lytic assay, wild-type parent; assay type: cell-based, Toxoplasma gondii; details: for % Parasite Growth: RHΔΔ; for EC50: Toxoplasma gondii
# Method: Parasite growth on HFF monolayers was monitored using a 96-well plate-based lytic assay modified from a previously described protocol. […]. Freshly harvested parasites (7.5 × 10^4 /well) were added to each well (in 100uL volume) to reach the final concentration range (10 μM to 0.0005 μM, 200 μL/well, 0.1% DMSO). Plates were incubated for 72 h at 37 °C then culture medium was aspirated and monolayers were fixed with 100% ethanol (ETOH) for 5 min at room temperature (RT). After rinsing with water, wells were stained with 0.1% crystal violet solution for 10 min at RT. Plates were rinsed with water, air dried, and absorption quantified on the Cytation 3 multi-mode imager at 570 nm wavelength. % parasite growth was calculated as 100−[(OD value for infected cultures at each concentration of compound/average OD value for no compound and no parasite infection) × 100]. EC50 values were calculated based on the mean of three biological replicates with each replicate containing two technical replicates.
# TgPheRS[L497I] = molecular target: T1, TgPheRS[L497I] (Toxoplasma gondii, UniProt A0A125YPN6, L497I); assay: Enzyme assay, TgPheRS L497I; assay type: biochemical; details: for enzyme assay readout (raw): L497I
# T1 sequence (A0A125YPN6 1-525 L497I): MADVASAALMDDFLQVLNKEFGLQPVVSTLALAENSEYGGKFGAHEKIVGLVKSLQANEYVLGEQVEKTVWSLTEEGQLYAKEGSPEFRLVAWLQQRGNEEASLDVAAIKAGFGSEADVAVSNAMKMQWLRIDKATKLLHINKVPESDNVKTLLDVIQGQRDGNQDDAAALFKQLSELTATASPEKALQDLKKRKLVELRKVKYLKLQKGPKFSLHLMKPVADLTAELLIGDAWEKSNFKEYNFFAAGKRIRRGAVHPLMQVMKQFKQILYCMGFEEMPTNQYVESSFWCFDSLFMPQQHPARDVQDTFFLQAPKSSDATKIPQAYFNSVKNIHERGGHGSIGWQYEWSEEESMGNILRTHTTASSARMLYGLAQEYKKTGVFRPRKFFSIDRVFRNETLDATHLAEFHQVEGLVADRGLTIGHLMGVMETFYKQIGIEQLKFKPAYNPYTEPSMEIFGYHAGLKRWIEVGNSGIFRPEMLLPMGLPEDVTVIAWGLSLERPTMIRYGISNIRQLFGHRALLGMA
# T1 sequence (S8EZ50 1-675 partner): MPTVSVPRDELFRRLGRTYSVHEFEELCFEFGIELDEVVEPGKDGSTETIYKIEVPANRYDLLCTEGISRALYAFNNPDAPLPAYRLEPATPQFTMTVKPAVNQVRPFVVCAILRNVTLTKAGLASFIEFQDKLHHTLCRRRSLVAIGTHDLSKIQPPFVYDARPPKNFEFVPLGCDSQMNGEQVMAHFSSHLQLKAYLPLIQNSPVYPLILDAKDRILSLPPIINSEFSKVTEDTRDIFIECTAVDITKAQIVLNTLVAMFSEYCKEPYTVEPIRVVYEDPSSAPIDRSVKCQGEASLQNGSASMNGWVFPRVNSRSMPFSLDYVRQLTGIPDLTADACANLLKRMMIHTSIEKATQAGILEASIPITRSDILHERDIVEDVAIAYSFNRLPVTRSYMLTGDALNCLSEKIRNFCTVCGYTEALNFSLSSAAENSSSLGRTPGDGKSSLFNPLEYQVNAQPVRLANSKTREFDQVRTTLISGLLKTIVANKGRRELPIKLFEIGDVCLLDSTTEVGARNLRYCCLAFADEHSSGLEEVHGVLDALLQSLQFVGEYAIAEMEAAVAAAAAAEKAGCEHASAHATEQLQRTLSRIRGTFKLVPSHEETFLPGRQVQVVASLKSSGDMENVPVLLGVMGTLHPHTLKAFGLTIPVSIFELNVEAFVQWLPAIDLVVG
# [2] = tested on: N. caninum expressing lacZ; assay: Neospora caninum β-galactosidase assay; assay type: cell-based; details: Neospora caninum
# Method: β-galactosidase assays were conducted using tissue culture grade 96-well plates (TPP) containing confluent monolayers of HFF cells. A 10-point compound dilution series (2-fold) for each compound was generated as described above (2X concentration, 0.1% final DMSO). Growth of the N. caninum strain expressing lacZ was monitoring using a β-galactosidase (β-gal) assay as described in[21] with the following modifications. N. caninum lacZ expressing parasites (1 × 10^3) were added (in 100 μL volume) into 96-well plates containing HFF monolayers to reach final compound concentration (5.0 μM to 0.002 μM in 200 μL total volume). Plates were incubated at 37 °C, 5% CO2 for 72 h prior to completing β-gal assay as previously described[23],[27],[51]. Briefly, parasite containing monolayers were lysed with 1.0% Triton X-100 and β-gal activity determined by adding 1 mM chlorophenolred-β-D-galactopyranoside followed by monitoring absorption at 570 nm on a Cytation 3 multi-mode imager (BioTek), as described.
smiles,measurement,setting,value
COc1ccc(NC(=O)N2CCCCN3[C@H](CN(C)C)[C@H](c4ccc(C#Cc5ccccc5)cc4)[C@@H]3C2)cc1 [BRD7929],% Parasite Growth,"[1]; 3.33333333 uM, replicate wells",-62.34% and -8.91% and -41.4% and -6.78% and -65.46% and -56.23% and -31.38% and -99.25% and -132.9% and -155.42% and -68.19% and -11.78%
same,% Parasite Growth,[1]; 0.00152416 uM,68.94% and 89.11% and 79.46% and 70.31% and 60.77%
same,% Parasite Growth,[1]; 0.00457247 uM,84.64% and 87.57% and 82.22% and 46.33% and 48.4%
same,% Parasite Growth,[1]; 0.01371742 uM,76.37% and 86.87% and 80.22% and 58.24% and 60.43%
same,EC50,"[1]; 72 h, read-out: EC50, RHΔΔ",82 nM
same,EC50,"[1]; read-out: EC50, RHΔΔ",53 nM
same,EC50,"[1]; Table S4, Wild type, read-out: EC50 (growth restriction)",36 nM
same,enzyme assay readout (raw),TgPheRS[L497I]; 0.000005 μM,0.3299 and 0.3217 and 0.3007
same,enzyme assay readout (raw),TgPheRS[L497I]; 0.000050 μM,0.3157 and 0.3171 and 0.3115
same,enzyme assay readout (raw),TgPheRS[L497I]; 0.000500 μM,0.3154 and 0.3074 and 0.3183
same,enzyme assay readout (raw),TgPheRS[L497I]; 0.005000 μM,0.2831 and 0.3060 and 0.3128
same,enzyme assay readout (raw),TgPheRS[L497I]; 0.050000 μM,0.3012 and 0.2839 and 0.2985
same,enzyme assay readout (raw),TgPheRS[L497I]; 0.500000 μM,0.2641 and 0.2615 and 0.2741
same,enzyme assay readout (raw),TgPheRS[L497I]; 5.000000 μM,0.2401 and 0.2141 and 0.2271
same,enzyme assay readout (raw),TgPheRS[L497I]; 50.000000 μM,0.1719 and 0.1728 and 0.1711
same,IC50,"TgPheRS[L497I]; Table S4, L497I, read-out: IC50 (enzyme inhibition)",1320 nM
same,EC50,"[2]; Table S3, 72 h, lacZ, read-out: N. caninum EC50",42 nM
same,EC50,"[2]; read-out: N. caninum (EC50, Fig S2 source data)",42.4 nM
